In patent EP4361137A1, “PRUNE1 INHIBITORS AND THERAPEUTIC USE THEREOF” (CEINGE Biotecnologie Avanzate Franco Salvatore s.c. a r.l., priority 2022, dated 2024):

Columns and labels:
[1] = tested on: human PRUNE1; experiment: qPCR of PRUNE1 mRNA in D425-MED cells; type: cell-based; settings: 10 µM, 24 hours, relative to vehicle (2^-ΔΔCt)
Method: (§1) D425.MED and MMTV-Prune1/Wnt1 cells were plated and treated with increasing concentrations of LEO-AA7.5(S)T for 24 hours. Water-treated cells were used as negative control for the experiments.
RNA samples were extracted using TRIzol RNA Isolation Reagent (15596026, Invitrogen), according to the manufacturer instructions. Reverse transcription was performed with 5× All-In-One RT MasterMix (g592; ABM), according to the manufacturer instructions. The reverse transcription products (cDNA) were amplified by qRT-PCR using an RT-PCR system (7900; Applied Biosystems, Foster City, CA, USA). The cDNA preparation was through the cycling method, by incubating the complete reaction mix as follows: cDNA reactions: (37 °C for 10 min and 60 °C for 15 min); Heat-inactivation: 95 °C for 3 min; Hold stage: 4 °C. The targets were detected with the SYBR green approach, using BrightGreen BlasTaq 2× PCR MasterMix (G895; ABM). Human ACTB was used as the housekeeping gene to normalize the quantification cycle (Cq) values of the other genes. […] Relative expression of the target genes was determined using the 2^-ΔΔCq method, as the fold increase compared with the controls. […]

[2] = tested on: human PRUNE1; experiment: qPCR of PRUNE1 mRNA in MATH1-Prune1/TP53-/- cells; type: cell-based; settings: 10 µM, 24 hours, relative to vehicle
Method: RNA samples were extracted using TRIzol RNA Isolation Reagent (15596026, Invitrogen), according to the manufacturer instructions. Reverse transcription was performed with 5× All-In-One RT MasterMix (g592; ABM), according to the manufacturer instructions. The reverse transcription products (cDNA) were amplified by qRT-PCR using an RT-PCR system (7900; Applied Biosystems, Foster City, CA, USA). The cDNA preparation was through the cycling method, by incubating the complete reaction mix as follows: cDNA reactions: (37 °C for 10 min and 60 °C for 15 min); Heat-inactivation: 95 °C for 3 min; Hold stage: 4 °C. The targets were detected with the SYBR green approach, using BrightGreen BlasTaq 2× PCR MasterMix (G895; ABM). Human ACTB was used as the housekeeping gene to normalize the quantification cycle (Cq) values of the other genes. These runs were performed on a PCR machine (Quantstudio5, Lifetechnologies) with the following thermal protocol: Hold stage: 50 °C for 2 min; Denaturation Step: 95 °C for 10 min; Denaturation and annealing (×45 cycles): 95 °C for 15 s and 60 °C for 60 s; Melt curve stage: 95 °C for 15 s, 60 °C for 1 min, and 95 °C for 15 s. Relative expression of the target genes was determined using the 2^-ΔΔCq method, as the fold increase compared with the controls. The data are presented as means ±SD of the 2^-ΔΔCq values (normalized to human ACTB) of three replicates.

[3] = tested on: CD4+/ CD8+ T cells; experiment: Tconv to Treg conversion of T cells grown in conditioned media (immunofluorescence CD4/FOXP3); type: cell-based, FVB mice
Method: The isolation of untouched mouse CD4+/ CD8+ T cells from single-cell suspensions from spleen of n.2 naive FVB mice were performed by using Pan T Cell Isolation Kit II, mouse (130-095-130, Miltenyi biotec), according to the manufacturer instruction. Once isolated, T cells were grown for 48 hours in the conditioned media previously collected for 24 hours from pooled vehicle- or 10 µM LEO-AA7.5(S)T-treated MATH1-Prune1/TP53-/- cells.
T cells grown for 48 hours in conditioned media collected from vehicle- or LEO-AA7.5(S)T-treated MATH1-Prune1/TP53-/- cells were fixed in 4% paraformaldehyde in phosphate-buffered saline (PBS) for 30 min, washed three times with PBS, and permeabilized for 15 min with 0.1% Triton X-100 (215680010; Acros Organics) diluted in PBS. The cells were then blocked with 3% bovine serum albumin (A9418; Sigma) in PBS for 1 h at room temperature. The samples were incubated with the appropriate primary antibodies overnight at 4 °C: anti-FOXP3 (1:2000; ab54501; Abcam); anti-CD4 (1:100; sc-19641, SantaCruz). After washing with PBS, the samples were incubated with the secondary antibody at room temperature for 1 h, as anti-mouse Alexa Fluor 488 (1:200; ab 150113; Abcam) or anti-rabbit Alexa Fluor 546 (1:200; Abcam). DNA was stained with DAPI (1:1000; #62254, Thermo Fisher). The slides were washed and mounted with cover slips with 50% glycerol (G5150; Sigma-Aldrich). […]

[4] = tested on: Prune1; experiment: Immunoblotting of Prune1 in MMTV-Prune1/Wnt1 cells; type: cell-based, human and murine; settings: dose of 10 mM
Method: as §1
Cells for immunoblotting analysis were washed in cold PBS and lysed in cell lysis buffer [20 mM sodium phosphate (pH 7.4), 150 mM NaCl, 10% (v/v) glycerol, 1% (w/v) sodium deoxycholate, 1% (v/v) Triton X-100] supplemented with protease inhibitors (Roche). The resulting cell lysates were cleared by centrifugation at 16,200g for 10 min at room temperature, and the supernatants were re- moved and assayed for protein concentrations with the Protein Assay Dye Reagent (Bio-Rad). The cell lysates (30 µg) were resolved by SDS-polyacrylamide gel electrophoresis (SDS-PAGE) gels of different percentages, which depended on the molecular weights of the proteins of interest. The proteins were then electrophoretically transferred to polyvinylidene difluoride (PVDF) membranes (Millipore). After 1 hour in blocking solution with 5% (w/v) dry milk fat in PBS or 5% (w/v) BSA (Sigma-Aldrich) in tris-buffered saline [both of which contained 0.02% (v/v) Tween 20] […] The peak areas of the bands were measured on the densitometry plots, and the relative proportions (percentages) were calculated. […]

[5] = tested on: J774A.1 macrophages; experiment: M2-polarization of macrophages grown in conditioned media (qPCR); type: cell-based, murine; settings: macrophages 48 h in conditioned media of MMTV-Prune1-Wnt1 cells treated with 10 µM
Method: The effects of MMTV-Prune-1/Wnt1 cells upon treatment with LEO-AA7.5(S)T were analyzed for M2-polarization of J774A. 1 murine macrophages. Briefly 1 ×10^6 MMTV-Prune-1/Wnt1 cells were resuspended in 10 mL complete DMEM medium, plated into 10-cm-diameter plates, treated with 10 µM LEO-AA7.5(S)T or water as vehicle control, and grown at 37 °C for 24 h. Then the conditioned media were collected. One day before culture in the conditioned media, J774A.1 macrophages were plated into 10-cm-diameter plates. At the time of the culturing in conditioned media, macrophages were at 50% confluence, and after 6 h of starvation in serum-free medium, the macrophages were grown in conditioned media for 48 h. Each experimental point was carried out in triplicate. After the culturing in the conditioned media, the macrophages were washed with PBS, collected, and used for RNA extraction.
RNA samples were extracted using TRIzol RNA Isolation Reagent (15596026, Invitrogen), according to the manufacturer instructions. […] The targets were detected with the SYBR green approach, using BrightGreen BlasTaq 2× PCR MasterMix (G895; ABM). Human ACTB was used as the housekeeping gene to normalize the quantification cycle (Cq) values of the other genes. […] Relative expression of the target genes was determined using the 2^-ΔΔCq method, as the fold increase compared with the controls. […]

## COc1ccc(CNc2ncnc(N3CCC[C@H](CO)C3)n2)cc1.Cl [LEO-AA7.5(S)T, (S)-(1-(4-((4-methoxybenzyl)amino)-1,3,5-triazin-2-yl)piperidin-3-yl)methanol HCl salt]
[1]
  endogenous Prune1 mRNA: 0.3 fold
[2]
  human endogenous Prune1 mRNA: 0.15 fold
[3]; T cells 48 hours in conditioned media of cells treated with 10 µM for 24 hours, vs vehicle conditioned media
  percentage of Tregs (CD4+FOXP3+) among T cells: decrease
[3]; ex vivo, 10 µM vs 100 µM AA7.1
  inhibition of the conversion from Tconv to Treg cells, compared with 100 µM AA7.1: comparable
[4]
  degradation of human and murine Prune protein: enhance the degradation
[5]
  levels of M2-polarized marker genes in macrophages: decreased levels
